# Measurements from ChEMBL document CHEMBL5120939, “Novel Isoindolinone-Based Analogs of the Natural Cyclic Peptide Fenestin A: Synthesis and Antitumor Activity” (ACS Med Chem Lett, 2022).
# Key:
# Type in all cases: functional
# HeLa [1] = assay: Induction of apoptosis in human HeLa cells assessed as necrotic cells at 26.1 uM incubated for 48 hrs by annexinV-FITC/propidium iodide staining based flow cytometry analysis (reference value: 0.0%)
# HeLa [2] = assay: Induction of apoptosis in human HeLa cells assessed as late apoptotic cells at 26.1 uM incubated for 48 hrs by annexinV-FITC/propidium iodide staining based flow cytometry analysis (reference value: 0.1%)
# HeLa [3] = assay: Induction of apoptosis in human HeLa cells assessed as early apoptotic cells at 26.1 uM incubated for 48 hrs by annexinV-FITC/propidium iodide staining based flow cytometry analysis (reference value: 0.1%)
# HeLa [4] = assay: Induction of apoptosis in human HeLa cells assessed as viable cells at 26.1 uM incubated for 48 hrs by annexinV-FITC/propidium iodide staining based flow cytometry analysis (reference value: 99.8%); settings: read-out: Activity
# HeLa [5] = assay: Induction of apoptosis in human HeLa cells assessed as viable cells at 13.2 uM incubated for 48 hrs by annexinV-FITC/propidium iodide staining based flow cytometry analysis (reference value: 99.8%); settings: read-out: Activity
# HeLa [6] = assay: Induction of apoptosis in human HeLa cells assessed as late apoptotic cells at 13.2 uM incubated for 48 hrs by annexinV-FITC/propidium iodide staining based flow cytometry analysis (reference value: 0.1%)
# HeLa [7] = assay: Induction of apoptosis in human HeLa cells assessed as necrotic cells at 13.2 uM incubated for 48 hrs by annexinV-FITC/propidium iodide staining based flow cytometry analysis (reference value: 0.0%)
# HeLa [8] = assay: Induction of apoptosis in human HeLa cells assessed as viable cells at 19.6 uM incubated for 48 hrs by annexinV-FITC/propidium iodide staining based flow cytometry analysis (reference value: 99.8%); settings: read-out: Activity
# HeLa [9] = assay: Induction of apoptosis in human HeLa cells assessed as early apoptotic cells at 19.6 uM incubated for 48 hrs by annexinV-FITC/propidium iodide staining based flow cytometry analysis (reference value: 0.1%)
# HeLa [10] = assay: Induction of apoptosis in human HeLa cells assessed as late apoptotic cells at 19.6 uM incubated for 48 hrs by annexinV-FITC/propidium iodide staining based flow cytometry analysis (reference value: 0.1%)
# HeLa [11] = assay: Induction of apoptosis in human HeLa cells assessed as necrotic cells at 19.6 uM incubated for 48 hrs by annexinV-FITC/propidium iodide staining based flow cytometry analysis (reference value: 0.0%)
# HeLa [12] = assay: Induction of cell cycle arrest in human HeLa cells assessed as <2N cells at 12.3 uM incubated for 12 hrs by RNAse A/PI staining based flow cytometric analysis (reference value: 41.6%)
# HeLa [13] = assay: Induction of cell cycle arrest in human HeLa cells assessed as S phase cells at 12.3 uM incubated for 12 hrs by RNAse A/PI staining based flow cytometric analysis (reference value: 20.5%)
# HeLa [14] = assay: Induction of cell cycle arrest in human HeLa cells assessed as 4N cells at 12.3 uM incubated for 12 hrs by RNAse A/PI staining based flow cytometric analysis (reference value: 5.37%)
# HeLa [15] = assay: Induction of cell cycle arrest in human HeLa cells assessed as 2N cells at 12.3 uM incubated for 24 hrs by RNAse A/PI staining based flow cytometric analysis (reference value: 29.9%)
# HeLa [16] = assay: Induction of cell cycle arrest in human HeLa cells assessed as >4N cells at 12.3 uM incubated for 24 hrs by RNAse A/PI staining based flow cytometric analysis (reference value: 2.61%)
# HeLa [17] = assay: Induction of cell cycle arrest in human HeLa cells assessed as <2N cells at 6.2 uM incubated for 48 hrs by RNAse A/PI staining based flow cytometric analysis (reference value: 41.6%)
# HeLa [18] = assay: Induction of cell cycle arrest in human HeLa cells assessed as 2N cells at 6.2 uM incubated for 48 hrs by RNAse A/PI staining based flow cytometric analysis (reference value: 29.9%)
# HeLa [19] = assay: Induction of cell cycle arrest in human HeLa cells assessed as S phase cells at 6.2 uM incubated for 48 hrs by RNAse A/PI staining based flow cytometric analysis (reference value: 20.5%)
# HeLa [20] = assay: Induction of cell cycle arrest in human HeLa cells assessed as 4N cells at 6.2 uM incubated for 48 hrs by RNAse A/PI staining based flow cytometric analysis (reference value: 5.37%)
# HeLa [21] = assay: Induction of cell cycle arrest in human HeLa cells assessed as <2N cells at 12.3 uM incubated for 48 hrs by RNAse A/PI staining based flow cytometric analysis (reference value: 41.6%)
# HeLa [22] = assay: Induction of cell cycle arrest in human HeLa cells assessed as S phase cells at 12.3 uM incubated for 48 hrs by RNAse A/PI staining based flow cytometric analysis (reference value: 20.5%)
# HeLa [23] = assay: Induction of cell cycle arrest in human HeLa cells assessed as 4N cells at 12.3 uM incubated for 48 hrs by RNAse A/PI staining based flow cytometric analysis (reference value: 5.37%)
# HeLa [24] = assay: Induction of cell cycle arrest in human HeLa cells assessed as >4N cells at 12.3 uM incubated for 48 hrs by RNAse A/PI staining based flow cytometric analysis (reference value: 2.61%)
# HeLa [25] = assay: Induction of cell cycle arrest in human HeLa cells assessed as 2N cells at 24.6 uM incubated for 48 hrs by RNAse A/PI staining based flow cytometric analysis (reference value: 29.9%)
# HeLa [26] = assay: Induction of cell cycle arrest in human HeLa cells assessed as S phase cells at 24.6 uM incubated for 48 hrs by RNAse A/PI staining based flow cytometric analysis (reference value: 20.5%)
# HeLa [27] = assay: Induction of cell cycle arrest in human HeLa cells assessed as 4N cells at 24.6 uM incubated for 48 hrs by RNAse A/PI staining based flow cytometric analysis (reference value: 5.37%)
# HeLa [28] = assay: Induction of cell cycle arrest in human HeLa cells assessed as >4N cells at 24.6 uM incubated for 48 hrs by RNAse A/PI staining based flow cytometric analysis (reference value: 2.61%)
# HeLa [29] = assay: Induction of cell cycle arrest in human HeLa cells assessed as accumulation at G2/M phase at 6.2 uM by RNAse A/PI staining based flow cytometric analysis relative to control
# HeLa [30] = assay: Induction of cell cycle arrest in human HeLa cells assessed as accumulation at G2/M phase at 12.3 uM by RNAse A/PI staining based flow cytometric analysis relative to control
# HeLa [31] = assay: Induction of mitochondrial membrane potential loss in human HeLa cells assessed as decrease in fluorescence intensity […] at 6.2 uM by Rhodamine 123 staining based flow cytometric analysis (reference value: 58.0%); design: scale not given: the % may be the effect or the level left
# HeLa [32] = assay: Induction of mitochondrial membrane potential loss in human HeLa cells assessed as decrease in fluorescence intensity […] at 24.6 uM by Rhodamine 123 staining based flow cytometric analysis (reference value: 58.0%); design: scale not given: the % may be the effect or the level left
structure (smiles),measurement,setting,value
CC[C@H](C)[C@@H]1NC(=O)[C@H](CC(C)C)NC(=O)[C@@H]2CSCN2C(=O)[C@@H]2CSCN2C(=O)CN2C(=O)c3ccccc3[C@@]2(O)CN(Cc2ccccc2)C1=O,Activity,HeLa [1],0.9%
same,Activity,HeLa [2],6.4%
same,Activity,HeLa [3],34.6%
same,viability at 26.1 µM,HeLa [4],58%
same,viability at 13.2 µM,HeLa [5],84.5%
same,Activity,HeLa [6],7.3%
same,Activity,HeLa [7],2.6%
same,viability at 19.6 µM,HeLa [8],68.6%
same,Activity,HeLa [9],23.3%
same,Activity,HeLa [10],6.7%
same,Activity,HeLa [11],1.3%
same,Activity,HeLa [12],33.1%
same,Activity,HeLa [13],11.5%
same,Activity,HeLa [14],16.8%
same,Activity,HeLa [15],20.6%
same,Activity,HeLa [16],11%
same,Activity,HeLa [17],37.5%
same,Activity,HeLa [18],24.9%
same,Activity,HeLa [19],11.1%
same,Activity,HeLa [20],17%
same,Activity,HeLa [21],14.9%
same,Activity,HeLa [22],21.3%
same,Activity,HeLa [23],35.7%
same,Activity,HeLa [24],0%
same,Activity,HeLa [25],28.8%
same,Activity,HeLa [26],5.72%
same,Activity,HeLa [27],47.5%
same,Activity,HeLa [28],3.51%
same,Activity,HeLa [29],17%
same,Activity,HeLa [30],35.7%
same,Activity,HeLa [31],52.6%
same,Activity,HeLa [32],19.4%
